How the values were obtained:
CCNK = experiment: TMT-labeled quantitative proteomics in MDA-MB-231 cells; assay type: cell-based, Homo sapiens; conditions: 8 h
Protocol: The global proteomic selectivity of ZLC491 was investigated by using the tandem mass tag (TMT) labeled mass-spectrometry. […] CDK13 was not detected in either degrader treatment groups or DMSO control groups, likely due to its insufficient cellular expression for mass spectrometry detection.
Figure 5 ZLC491 degraded CDK12/13 with high selectivity. (A) Global proteomic analysis of ZLC491 in MDA-MB-231 cells after 8 h treatment of DMSO or 2 μM ZLC491; (B) mass-spec quantification of CDKs changes; (C) immunoblotting of target protein degradation in samples for proteomic analysis.
MDA-MB-231 cells were seeded at 8 × 10^5 cells in 6 cm dishes 24 h before treating with 2 μM ZLC491 or DMSO in quadruplicate or triplicate for 8 h. […] Samples were quantified using a micro-BCA protein assay kit (Thermo Fisher Scientific) and 600 μg of each sample was processed and digested using the filter aided sample preparation (FASP) method followed by alkylation with iodoacetamide and digestion with trypsin. […]
The fractions were analyzed sequentially on an Orbitrap Fusion Lumos Mass Spectrometer (Thermo Scientific) coupled to a NanoLC-1200 UHPLC system (Thermo Scientific) with C18 capillary column. […] MS3 precursor were fragmented by HCD and analyzed with Orbitrap at NCE 65, AGC 1E5, resolution 60000. […]

CDK12 and CDK13 = experiment: Pharmacodynamic study in MDA-MB-231 xenografted mouse model, Western blot of tumor tissues; assay type: in vivo; conditions: 100 and 200 mg/kg orally, 5 consecutive days, vs vehicle, MDA-MB-231 xenograft mice
Protocol: (§1) We further performed pharmacodynamic studies of ZLC491 in an MDA-MB-231 xenografted mouse model. ZLC491 was orally administrated at two doses of 100 and 200 mg/kg, respectively, for 5 consecutive days (Figure 7A). Tumor tissues were harvested on day 5 and subjected to Western blot analysis. […] Additionally, we conducted further histological analysis on the tumors following ZLC491 treatment.
(§2) Figure 7 ZLC491 depleted CDK12 and CDK13 proteins in vivo. (A) Study design of pharmacodynamics assessment on target engagement of ZLC491 in the MDA-MB-231 xenograft model; (B) immunoblotting of CDK12, CDK13, and α-tubulin in tissue lysate of MDA-MB-231 xenografts model after ZLC491 treatment; (C) protein levels were quantified using ImageJ and normalized to corresponding α-tubulin, then plotted using GraphPad Prism 8.0; (D) immunohistochemistry (IHC) analysis on the tumors by H&E staining and TUNEL assays; (E) TUNEL histology scores were analyzed and plotted by GraphPad Prism 8.0; (F) body weight change during the treatment.
(§3) The pharmacodynamics experiments were performed under an approved animal protocol by the Institutional Animal Care & Use Committee of the University of Michigan. Six- to eight-week-old CB17SCID female (Charles River Laboratory) mice were in a regular SPF housing room prior to cell injection. […]

[1] = Tolerability and body weight in MDA-MB-231 xenografted mice; assay type: in vivo; conditions: 100 and 200 mg/kg orally, 5 days
Protocol: as §1, §2, §3

## N#Cc1ccc(N[C@H]2CC[C@H](N(C(=O)NCc3ccccc3)c3ccc(N4CCN(C5CCN(c6cc7c(cc6F)C(=O)N(C6CCC(=O)NC6=O)C7=O)CC5)CC4)cc3)CC2)nc1 (some centres unmarked) [ZLC491, 3-Benzyl-1-((1r,4r)-4-((5-cyanopyridin-2-yl)amino)cyclohexyl)-1-(4-(4-(1-(2-(2,6-dioxopiperidin-3-yl)-6-fluoro-1,3-dioxoisoindolin-5-yl)piperidin-4-yl)piperazin-1-yl)phenyl)urea]
CCNK; 2 μM ZLC491 vs DMSO
  FC_4-91 (CCNK): 0.4255
CCNK; 2 μM
  CCNK level in global proteomics: significantly decreased
CDK12 and CDK13
  CDK12 and CDK13 proteins in tumor tissues: significantly depleted
[1]
  body weight change during the treatment: absence of body weight loss
  tolerability: well tolerated

— PMC11513923, “Discovery of ZLC491 as a Potent, Selective, and Orally Bioavailable CDK12/13 PROTAC Degrader” (Journal of Medicinal Chemistry, 2024)
